Results on 6 molecules are retold here after patent publication US20040121357A1, “Artificial endonuclease” (priority 2004, published 2004).

“Also recorded” adds a separate entry of the source. Where no end group is shown, it is not given here.

Data set [1] concerns supercoiled plasmid DNA. In words: Cleavage of supercoiled plasmid DNA, agarose gel electrophoresis. It is filed as biochemical. Conditions: for Dependence of cleavage activity on concentration (in words): increasing metallopeptide concentration. The method, then:
FIG. 8. […] Samples containing 1 μg plasmid (about 60 μM b.p.) in 10 mM Tris buffer, pH=7.0, were incubated for 48 hours at 37° C. Reactions were quenched by the addition of 0.5 M EDTA to a final concentration of 10 mM, followed by addition of 100 mM KCl. The reaction mixtures were then treated with Amberlyst cation exchange resin prior to electrophoresis. Lane 1: pUC19 DNA control; lanes 2-5: DNA plus increasing concentrations of EuC13 (20, 30, 50 and 100 μM); lanes 6-9: DNA plus increasing concentrations of free P3 (20, 30, 50 and 100 μM); lanes 10-15: DNA plus increasing concentrations of 1:1 Eu:P3 (10, 20, 30, 40, 50 and 100 μM).
The conversion of supercoiled plasmid (type I) to open circular (type II), linear (type III), or smaller fragments was monitored by agarose gel electrophoresis. Because the synthetic peptides bind strongly to DNA, thus preventing the observation of products, the peptides were chelated prior to electrophoresis (Falke et al., 1994). At the point each reaction was quenched (0.1 M EDTA), a suspension of neutral, washed, cation resin (Amberlyst, 10-20 μL) was incubated with each sample for 30 minutes, spun down, and the supernatent loaded into wells. After 24 hours of reaction (incubated at 37° C.), the concentration-dependent formation of open circular plasmid was observed (FIG. 8). […] Over a 10-300 μM EuP3 gradient, nicking occurred from 10-150 μM, with the greatest amount of cleavage at 30 μM EuP3.

The nature of data set [2]: Hydrolysis of bis-nitrophenylphosphate (BNPP) followed spectrophotometrically at 400 nm. It is filed as biochemical. Particulars: for Rates (K(obs)) of BNPP cleavage: 500 μM BNPP, 37° C. From the text: To test hydrolytic activity, the hydrolysis of binitrophenylphosphate (BNPP) is followed. The absorbance increase at 400 nm is due to liberated 4-nitrophenolate which can be monitored over time to give rate constants. The rate reflects the relative accessibility and reactivity of the active site, and can be compared to the rates observed for the hydrolytically active peptide or polypeptide.
Hydrolytic Phosphate Cleavage. Because the EF-Hand is physiologically strictly a structural motif, an isolated Ca-binding loop's ability to affect hydrolytic cleavage was addressed. The hydrolysis of bis-nitrophenylphosphate (BNPP) was followed spectrophotometrically under turnover conditions. The absorbance increase at 400 nm due to liberated 4-nitrophenolate was observed over the initial 10-14 hours of the reaction (<10% BNPP converted). […] Plots of absorbance vs. time were converted to concentration units (ε=18,500 M^−1 cm^−1) to give first order rate constants (Sardesai et al., 1994).

The subject of data set [3] is supercoiled plasmid DNA (pBR322). In words: DNA gel shift assay (agarose gel electrophoresis). Type of data set: binding. Conditions: for Gel shift / affinity for supercoiled plasmid DNA (in words): 5-25 μM ligand, 15 minutes, room temperature. The method, then: DNA Gel Shift Assays. The affinity of EuP3, EuP2, and each free peptide for supercoiled plasmid DNA was examined by agarose gel electrophoresis. Plasmid (pBR322, New England Biolabs, Inc.) was incubated for 15 minutes at room temperature with increasing concentrations of each ligand (5-25 μM), prior to the addition of loading dye. Each lane contained 1 μg plasmid (50 μM base pairs) in 10 mM Tris buffer at pH 8.0. […] The interaction of ligand with supercoiled plasmid (type I) can be observed if run under conditions where the DNA-ligand interactions are not disturbed during electrophoresis. Supercoiled pBR322 was chosen as a standard plasmid, and was incubated for 15 minutes with EuCl3, EuP3, EuP2, or free peptide prior to electrophoresis. This small, 4,361 bp plasmid contains three [NT] sequences, and eight […] sequences, partial target sequences for engrailed homeodomain. In the absence of 0.1 M EDTA (normally added prior to electrophoresis to quench hydrolytic cleavage assays) and with short incubation times to minimize metal-catalyzed cleavage, a gel shift can be observed. […] From quantified concentration-dependent gel shift data, an estimate of the binding affinity of EuP3 can be made. Gels with increasing Eu-peptide concentrations (5 to 25 μM in each set) were quantified (ImageQuant; Molecular Simulations), and average band volumes were plotted versus concentration. […] Each graphed point represents data averaged from three gel experiments.

Data set [4] relates to ^32P-labeled fragment of pBR322. The experiment in a line: Cleavage of 32P-labeled DNA fragment, acrylamide gel electrophoresis. Type of data set: biochemical. Particulars: 40 μM Ce^4+, 37° C. overnight. The method, then:
FIG. 10. Sequence specificity of artificial endonucleases. […] Controls (water) were conducted to measure background cleavage. […] Minor products run with Maxam-Gilbert lanes.
Sequence Selective DNA Cleavage. […] This cleavage is not dependent on the strain inherent in supercoiled plasmid, as cleavage of linearized ^32P-labeled DNA oligonucleotides was observed as well. Labeled fragments were incubated with Ce(NH3)6(NO3)4 and varying concentrations of peptides P3 or P3W at 37° C. overnight and analyzed by acrylamide gel electrophoresis (FIG. 10). Cleavage was concentration dependent, and distinct between metallopeptides.

A short description of data set [5]: Circular dichroism titration of peptides with Eu(III) (incl. TFE helix induction). Conditions: initial portion of the curve (0-50 μM Eu(III)); read-out: Metal binding affinity (K1, Kd) estimated from CD titration.
Data set [6] concerns the molecule itself. In words: dimerization constant of Eu(III)-bound P4a (self-association); called 'measured', method not stated.
Data set [7] deals with the molecule itself. The experiment in a line: dimerization constant (self-association) from CD titration of P3 with Eu(III), helicity at 222 nm. The method, then:
Circular Dichroism Titrations. The titration of P2 and P3 peptides with Eu(III) and Ca(II) was followed by circular dichroism spectroscopy on an Aviv 60DS spectrophotometer at 25° C. Samples (50 μM peptide) were scanned from 260 to 200 nm (0.1 mm pathlength cell, 1.0 nm bandwidth, 0.5 nm resolution), in 10 mM Tris(hydroxymethyl)aminomethane buffer (Tris; pH=7.8). Eu(III) and Ca(II) were added as the chlorides. Aliquots of 10 mM stock metal solutions were added to a maximum of 10 equivalents.
The secondary structure of P3 as a function of metal was followed by CD, calculating the % α-helicity from the molar ellipticity at 222 nm (100% helical=−31,500 deg cm² dmol⁻¹). With the addition of Eu(III) to P3, the helicity increases from 9 to 25%, showing enhanced structure correlated to metal-coordination. This increase in structure with added metal describes a curve which has an inflection point at approximately 1:1 Eu:P3, then continues to a 25% helical metal-saturated form. […] A second structural change, correlating to the discrete back-to-back dimerization which has been well characterized for similar EF-Hand peptides systems occurs at Kdim about 80 μM (Shaw et al., 1991; Wójcik et al., 1997; Clarke et al., 1993; Shaw et al., 1990; Maurer et al., 1995). […]

Data set [8] deals with the molecule itself. The experiment in a line: dimerization constant of Eu(III)-bound P3 (self-association); isothermal titration microcalorimetry. On the technique in general: In ITC the heat of successive injections is recorded.
Where [9] appears, read: 10 μM Eu/10 μM peptide, pH 7.7, 10 mM Tris.
Setting [10] is: 25 μM Eu/25 μM peptide, pH 7.7, 10 mM Tris.
[11] abbreviates: 25 μM Eu/50 μM peptide, pH 7.7, 10 mM Tris.
The mark [12] stands for this setting: 10-300 μM EuP3 gradient, 37° C.

On to “EuP4a: Eu(III)-bound peptide P4a (TERRRFDKDGNGYISAAELRHVKIWFQNKRAKIK)”, for which the “Dependence of cleavage activity on concentration (in words)” value in data set [1] is reported as “does not”. Further, the “Rates (K(obs)) of BNPP cleavage” value turned out to be 11.3 s^−1 × 10^7 in data set [2] (setting [9]); 56.3 s^−1 × 10^7 in data set [2] (setting [10]); 62.0 s^−1 × 10^7 in data set [2] (setting [11]); 149.5 s^−1 × 10^7 in data set [2] (50 μM Eu/50 μM peptide, pH 7.7, 10 mM Tris); 212.0 s^−1 × 10^7 in data set [2] (50 μM Eu/100 μM peptide, pH 7.7, 10 mM Tris).
Consider `[Cl][Eu]([Cl])[Cl]` [EuCl3, reference compound], for which the “Gel shift / affinity for supercoiled plasmid DNA (in words)” value in data set [3] was “not”. Further, the “Rates (K(obs)) of BNPP cleavage” value turned out to be 5.2 ± 0.6 s^−1 × 10^7 in data set [2] (10 μM Eu/0 μM peptide, pH 7.7, 5 mM Tris); 1.4 s^−1 × 10^7 in data set [2] (10 μM Eu/0 μM peptide, pH 7.7, 10 mM Tris); 5.7 ± 0.3 s^−1 × 10^7 in data set [2] (12 μM Eu/0 μM peptide, pH 7.7, 5 mM Tris); 2.0 s^−1 × 10^7 in data set [2] (15 μM Eu/0 μM peptide, pH 7.7, 10 mM Tris); 19 ± 3 s^−1 × 10^7 in data set [2] (20 μM Eu/0 μM peptide, pH 7.7, 5 mM Tris); 2.7 s^−1 × 10^7 in data set [2] (20 μM Eu/0 μM peptide, pH 7.7, 10 mM Tris).
In the case of `O=[N+]([O-])[O-].O=[N+]([O-])[O-].O=[N+]([O-])[O-].O=[N+]([O-])[O-].O=[N+]([O-])[O-].O=[N+]([O-])[O-].[Ce+4].[NH4+].[NH4+]` [Ce^4+, (NH4)2 Ce(NO3)6], in data set [4], the “Regioselectivity of cleavage: termini produced” value was “both 3′ and 5′ termini”.
As for “EuP3: Eu(III)-bound peptide P3 (1:1 Eu-peptide) (TERRRQQLDKDGDGTIDEREIKIHFQNKRAKIK)”, the “Concentration causing a gel shift of supercoiled plasmid DNA” value in data set [3] (50 μM base pairs) was at least 10 µM. For the same molecule, the “Gel shift / affinity for supercoiled plasmid DNA (in words)” value in data set [3] was “significant affinity for supercoiled plasmid DNA; also recorded: gel shift and disappearance of type I plasmid occurs; also recorded: DNA-binding affinity in the micromolar regime; also recorded: disappearance of type I band”. Moreover, in data set [3] (disappearance of type I band, 5 to 25 μM, average of three gels), the “Estimate of DNA binding affinity from quantified gel shift data” value is about 20 µM. The Kd in data set [5] is at most 20 µM. Moreover, the “Concentration range in which nicking occurred” value in data set [1] (setting [12]) was in the range of 10 to 150 µM. Besides, the “Concentration with the greatest amount of cleavage” value in data set [1] (setting [12]) came to 30 µM. The “Cleavage of supercoiled plasmid DNA (in words)” value in data set [1] (37° C., pUC19 for EuP3, Eu(III) and Ce(IV) complexes for P3W) is “catalyzes the cleavage of supercoiled, double-stranded DNA; also recorded: cleavage of pUC19 plasmid DNA”. For the same molecule, the “Dependence of cleavage activity on concentration (in words)” value in data set [1] was “falls off with increasing concentration”. Moreover, in data set [2], the “BNPP catalysis compared with free Eu(III) (in words)” value is “may not be as fast as free Eu(III) catalysis”. Moreover, the “Rates (K(obs)) of BNPP cleavage” value was determined as 6.0 s^−1 × 10^7 in data set [2] (setting [9]); 7.3 s^−1 × 10^7 in data set [2] (setting [10]); 20.6 s^−1 × 10^7 in data set [2] (setting [11]); 17.5 ± 4 s^−1 × 10^7 in data set [2] (50 μM Eu/50 μM peptide, pH 7.7, 5 mM Tris); 11.5 ± 4 s^−1 × 10^7 in data set [2] (50 μM Eu/100 μM peptide, pH 7.7, 5 mM Tris).

B1: P4a (peptide)
peptide: TERRRFDKDGNGYISAAELRHVKIWFQNKRAKIK
modifications: also: Eu(III) complex, dimer EuP4a2
notes: The entry describes the monomer; also called EuP4a; EuP4a2 (dimer)
B1: the Kd in data set [6] is at least 300 µM.

B2: P3 (peptide)
peptide: TERRRQQLDKDGDGTIDEREIKIHFQNKRAKIK
modifications: also: Eu(III) complex, Eu(III) organizes two peptides into back-to-back dimer
notes: In the dimerization experiments it stood with Eu(III) (EuCl3); The entry describes the monomer; also called EuP3; peptide P3
On to B2, for which the Kd was about 80 µM in data set [7] and at least 80 µM in data set [8].
